# Measured values published in US7741295B2, “Sir2 products and activities” (Albert Einstein College of Medicine of Yeshiva University, priority 2001, dated 2010).
# What was measured:
# [1] = Stability of authentic β-1′-AADPR (elimination as a Sir2p product); assay type: physicochemical; conditions: 100 μM, 40 mM phosphate buffer pH 6.25, one hr at 55° C., HPLC
# Text: Elimination of β-1′-AADPR as a Sir2p product.
# Sir2 = conditions: cited from earlier work
# [2] = Interconversion rates of 2′- and 3′-AADPR (HPLC, NMR); assay type: physicochemical
# Experimental: Interconversion rates of 2′- and 3′-AADPR. Sample of both 2′- and 3′-AADPR were incubated at 15° C. and analyzed by HPLC at 40 min intervals (C-18 column; 50 mM ammonium acetate pH 5.0). The percent of the 3′-isomer at a given time was fit to the equation 3′-AADPR (%)=Pa exp (−kt)+Pf where Pa+Pf=P0; where Pa is the percent of the 3′-isomer above equilibrium at time=0, t is time and k is the first order rate constant for the conversion. Pf is the percent at equilibrium and P0 is the initial percent. HPLC and NMR analysis established the 2′- and 3′-isomers concentration as a function of time. NMR was in 10% d4-methanol/90% D2O at 0° C. or in 100% D2O at 20° C.
# esterase activity [3] = experiment: Breakdown of AADPR by esterase activity in hamster ovary cell extract; assay type: in vitro ADME; conditions: hamster ovary cells extract
# Text: (§1) The use of AADPR or radiolabeled AADPR is a strategy to characterize and discover the esterases (or other enzymes) that break down or utilize AADPR in vivo. Specifically, AADPR breakdown can be measured by HPLC or TLC assay. When radiolabels are used, amounts of AADPR necessary for this purpose can be as small as 250 pmoles.
# esterase activity [4] = experiment: Breakdown of AADPR by esterase activity in rat liver extract; assay type: in vitro ADME
# Text: as §1
# Sir2Af2 [5] = target: T1, Sir2Af2 (Archaeoglobus fulgidus, UniProt O30124); experiment: Low temperature ^1H NMR analysis of Sir2p reaction products (order of product formation); assay type: biochemical; conditions: 5° C.
# T1 construct: made in house
# T1 sequence (O30124 1-253): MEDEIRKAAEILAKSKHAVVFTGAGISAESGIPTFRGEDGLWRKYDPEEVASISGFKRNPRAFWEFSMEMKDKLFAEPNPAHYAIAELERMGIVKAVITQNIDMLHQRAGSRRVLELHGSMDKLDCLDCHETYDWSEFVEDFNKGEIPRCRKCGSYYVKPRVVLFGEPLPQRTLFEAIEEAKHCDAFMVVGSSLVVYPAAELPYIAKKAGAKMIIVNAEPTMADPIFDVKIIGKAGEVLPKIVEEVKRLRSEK
# Experimental: Low temperature studies of Sir2Af2 to identify order of product production. Sir2Af2 catalyzed deacetylation reactions were performed at 8° C. to determine the order of product formation. A 200 μL solution containing 150 μM NAD^+, 300 μM peptide JB12, in 40 mM potassium phosphate pH 6.2 were cooled to 8° C. and then 1 μL of 9 μg/μL of Sir2Af2 was added to initiate the reaction. Reactions were assayed by HPLC using 0.5% TFA as an eluant. Peals at 17 and 20 min were used to quantitate 3′- and 2′-AADPR at 30 minute intervals.
# Low temperature ^1H NMR analysis of Sir2p reaction products. A solution of 1.7 mg Sir2Af2 enzyme in 95% D2O, 50 mM potassium phosphate pH 6.3 was concentrated to 550 μL using centrifugation filtration. This sample was mixed with 2 mg JB12 peptide and cooled to 5° C. in a 600 MHz NMR spectrometer. Spectra were obtained and 280 μL of ice-chilled 22 mM NAD^+ solution in 50 mM potassium phosphate pH 6.3 in 99% D2O was added to initiate the reaction. ^1H NMR 1D spectra were obtained at intervals over 18 hr at 5° C.
# Sir2Af1 = target: T2, Sir2Af1 (Archaeoglobus fulgidus, UniProt O28597); conditions: cited from earlier work
# T2 construct: made in house
# T2 sequence (O28597 1-245): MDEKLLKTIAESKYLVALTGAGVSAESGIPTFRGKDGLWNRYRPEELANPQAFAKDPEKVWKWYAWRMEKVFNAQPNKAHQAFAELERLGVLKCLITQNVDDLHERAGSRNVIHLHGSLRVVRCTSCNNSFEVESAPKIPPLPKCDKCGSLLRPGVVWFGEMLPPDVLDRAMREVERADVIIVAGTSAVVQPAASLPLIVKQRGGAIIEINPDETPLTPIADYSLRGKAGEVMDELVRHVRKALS
# AfSir2 = experiment: Inhibition of AfSir2 by ADPR; assay type: biochemical, Archaeoglobus fulgidus
# Sir2Af2 [6] = target: T1, Sir2Af2; experiment: Inhibition of Sir2Af2 catalytic turnover by ara-F-NAD^+ (HPLC); assay type: biochemical; conditions: Sir2Af2 7 μM, ara-F-NAD^+ 20 μM, 300 μM JB12, 6 h then 150 μM NAD^+
# Experimental: (§2) Ara-F-NAD^+ as an NAD^+ analogue. Ara-F NAD^+ is an inhibitor of ADP-ribosyl-transferase and was used to evaluate Sir2Af2. Ara-F-NAD^+ was synthesized as previously reported^44. Deacetylation of peptide JB12 (300 μM) by Sir2Af2 (10 μg) in the presence of ara-F-NAD^+ (50 μM) was tested in 200 μL of 40 mM potassium phosphate pH 6.25. No change of ara-F-NAD^+ was detected by C-18 reverse phase HPLC. […] A control run with […] and NAD^+ established [Carbonyl-^14C]-nicotinamide exchange into NAD^+, confirming the Sir2 base-exchange reaction. […] Inhibition of Sir2Af2 by ara-F-NAD^+ was evaluated by incubation of Sir2Af2 enzyme (7 μM) and ara-F-NAD^+ (20 μM) in the presence of 300 μM JB12 peptide in potassium phosphate pH 6.25 buffer. A reaction mixture lacking ara-F NAD^+ was the control. A positive control used the same reaction components but 500 nM CD38 in the presence of 5 μM ara-F-NAD^+. Reactions were initiated after 6 h by adding 150 μM NAD^+. Reactions were evaluated for catalytic turnover using HPLC. Catalytic turnover of Sir2Af2 was not inhibited by ara-F-NAD^+ under these reaction conditions.
# CD38 = CD38 controls with ara-F-NAD^+ (base exchange, inhibition); assay type: biochemical, human
# Experimental: as §2
# [7] = cited from earlier work
# Sir2Af2 [8] = target: T1, Sir2Af2; experiment: Ara-F-NAD^+ as NAD^+ analogue: substrate and nicotinamide exchange reactions with Sir2Af2; assay type: biochemical; conditions: for [Carbonyl-^14C]-nicotinamide exchange catalysed by Sir2Af2: 5 mM nicotinamide, 300 μM peptide; for Substrate in Sir2Af2 deacetylation of peptide JB12: ara-F-NAD^+ 50 μM, JB12 300 μM, pH 6.25, C-18 HPLC
# Experimental: as §2
# [9] = system: ADP-ribosyltransfer enzymes; conditions: cited from earlier work
compound,measurement,setting,value
CC(=O)O[C@@H]1O[C@H](COP(=O)(O)OP(=O)(O)OC[C@H]2O[C@@H](n3cnc4c(N)ncnc43)[C@H](O)[C@@H]2O)[C@@H](O)[C@H]1O [β-1′-AADPR],Change of β-1′-AADPR and production of 2′- or 3′-AADPR on incubation,[1],no change
NC(=O)c1cccnc1 [nicotinamide],Inhibition of Sir2,Sir2,inhibits the enzyme
"CC(=O)O[C@@H]1[C@@H](COP(=O)(O)OP(=O)(O)OC[C@H]2O[C@@H](n3cnc4c(N)ncnc43)[C@H](O)[C@@H]2O)OC(O)[C@@H]1O (stereo partly drawn) [3′-AADPR, 3′-O-acetyl-ADP-ribose]",rate of chemical exchange of the acetyl group,[2]; 15° C.,0.32 h⁻¹
same,equilibrium constant K,"[2]; 15° C., HPLC peak integrations of the 2′- and 3′-isomers",1.4
same,first-order rate constant for acetyl migration k3′ to 2′,"[2]; fit to exponential decay curve, 15° C.",0.32 h⁻¹
acetyl adenosine diphosphate ribose [AADPR],Breakdown of AADPR to ADPR and acetate,esterase activity [3],high esterase activity exists that can breakdown AADPR
same,Breakdown of AADPR to ADPR and acetate,esterase activity [4],high esterase activity exists that can breakdown AADPR
"CC(=O)O[C@H]1C(O)O[C@H](COP(=O)(O)OP(=O)(O)OC[C@H]2O[C@@H](n3cnc4c(N)ncnc43)[C@H](O)[C@@H]2O)[C@H]1O (stereo partly drawn) [2′-AADPR, 2′-O-acetyl-ADP-ribose]",ratio kcat/k2′-3′,Sir2Af2 [5],20
same,rate of chemical exchange of the acetyl group,[2]; 15° C.,0.45 h⁻¹
same,α/β anomeric equilibrium rate,[2]; NMR,> 50 s⁻¹
same,calculated value for k3′ to 2′,"[2]; calculated from K and the measured rate constant, 15° C.",0.45 h⁻¹
same,time to establish 2′/3′ equilibrium,[2]; physiological temperatures of 37° C.,≤ 60 min
"acetylated BSA: acetylated BSA, a non physiologic substrate",Substrate of Sir2Af1 as reported in the literature,Sir2Af1,is a substrate
adenosine diphosphate ribose [ADPR],Inhibition of AfSir2,AfSir2,potent inhibitor
NC(=O)c1ccc[n+]([C@@H]2O[C@H](COP(=O)([O-])OP(=O)(O)OC[C@H]3O[C@@H](n4cnc5c(N)ncnc54)[C@H](O)[C@@H]3O)[C@@H](O)[C@H]2F)c1 [ara-F-NAD^+],Inhibition of Sir2Af2 catalytic turnover,Sir2Af2 [6],not inhibited
same,Inhibition of Sir2Af2 catalytic turnover,Sir2Af2 [6]; listed as Ara-F-NAD^+,did not inactivate
same,Activity (inactivation) on CD38 positive control,"CD38; 500 nM CD38, 5 μM ara-F-NAD^+",activity on the control using CD38
same,Base exchange with [^14C]nicotinamide catalysed by CD38,CD38; control,full base exchange
same,Stability relative to NAD^+,[7],roughly 50 times
same,[Carbonyl-^14C]-nicotinamide exchange catalysed by Sir2Af2,Sir2Af2 [8],no radioactivity incorporated
same,[Carbonyl-^14C]-nicotinamide exchange catalysed by Sir2Af2,Sir2Af2 [8]; listed as Ara-F NAD^+,did not serve as a substrate
same,Substrate in Sir2Af2 deacetylation of peptide JB12,Sir2Af2 [8],No change
same,Substrate in Sir2Af2 deacetylation of peptide JB12,Sir2Af2 [8]; listed as Ara-F NAD^+,did not serve as a substrate
same,Inhibitor of ADP-ribosyltransfer enzymes,[9],powerful inhibitor
